In assay [1] the test system is SW480 human primary colon cancer cells. The assay can be described thus: MTT assay, SW480 cells. It is filed as cell-based. The following applies: SW480, 72 h, read-out: IC50 SW480.
The subject of assay [2] is SW620 human metastatic colon cancer cells. Nature of the assay: MTT assay, SW620 cells. The format is cell-based. The settings on record: SW-620, 72 h, read-out: IC50 SW620. A general note: Formazan colour is commonly taken as a measure of viable cells.
For assay [3], the system named is PC3 human metastatic prostate cancer cells. The assay can be described thus: MTT assay, PC3 cells. The format is cell-based. The following applies: PC-3, 72 h, read-out: IC50 PC3.
Assay [4] deals with A549 human lung cancer cells. The assay can be described thus: MTT assay, A549 cells. The format is cell-based. The settings on record: A549, 72 h, read-out: IC50 A549.
In assay [5] the test system is prostate cancer cells. The arrangement: method as in PMID 21159605. The settings on record: no significant effects on normal prostate epithelial cells; cited from earlier work.
The nature of assay [6]: Black lipid membrane (BLM) ionic current. The settings on record: at −60 mV, 50/150 mM KCl (cis/trans) gradient.
The test system of assay [7] is A549 cells. The assay can be described thus: MitoTracker Green FM flow cytometry (mitochondrial mass), A549. The settings on record: A549, 48 h at IC50 concentration. (A flow cytometer gives signals particle by particle.)
Assay [8] has as its system A549 cells. Nature of the assay: MitoTracker Red CMXRos flow cytometry (mitochondrial membrane potential), A549. The settings on record: A549, 48 h at IC50 concentration.

Structures are written as SMILES.

As usually defined, the IC50 is the concentration at which inhibition is half-maximal. Regarding `CC[C@@H](C(=O)[C@@H](C)[C@@H](O)[C@H](C)[C@@H]1O[C@@H]([C@@H](CC)C(=O)O)CC[C@@H]1C)[C@H]1O[C@]2(C=C[C@H](n3cc(COC(=O)CCC[P+](c4ccccc4)(c4ccccc4)c4ccccc4)nn3)[C@]3(CC[C@@](C)([C@H]4CC[C@](O)(CC)[C@H](C)O4)O3)O2)[C@H](C)C[C@@H]1C` [1b], the IC50 in assay [1] stood at 8.8 ± 2.4 µM; in assay [2], 16.8 ± 4.4 µM; in assay [3], 5.5 ± 1.4 µM; in assay [4], 3.9 ± 0.8 µM.

Regarding `CC[C@@H](C(=O)[C@@H](C)[C@@H](O)[C@H](C)[C@@H]1O[C@@H]([C@@H](CC)C(=O)O)CC[C@@H]1C)[C@H]1O[C@]2(C=C[C@H](n3cc(C[P+](c4ccccc4)(c4ccccc4)c4ccccc4)nn3)[C@]3(CC[C@@](C)([C@H]4CC[C@](O)(CC)[C@H](C)O4)O3)O2)[C@H](C)C[C@@H]1C` [1a], the IC50 in assay [1] came out at 9 ± 3.6 µM; in assay [2], 16.4 ± 2.4 µM; in assay [3] it was 1.2 ± 0.2 µM; in assay [4], 2.9 ± 0.5 µM.

Consider `CC[C@@H](C(=O)[C@@H](C)[C@@H](O)[C@H](C)[C@@H]1O[C@@H]([C@@H](CC)C(=O)O)CC[C@@H]1C)[C@H]1O[C@]2(C=C[C@@H](O)[C@]3(CC[C@@](C)([C@H]4CC[C@](O)(CC)[C@H](C)O4)O3)O2)[C@H](C)C[C@@H]1C` [SAL, Salinomycin, reference compound], for which the IC50 in assay [1] came out at 1.1 ± 0.04 µM; in assay [2], 1.5 ± 0.06 µM; in assay [3], 2.7 ± 0.1 µM; in assay [4], 1.6 ± 0.1 µM.

Regarding `CCC1(C2OC(C3OC(O)(Cn4cc(CNC(=O)CCC[P+](c5ccccc5)(c5ccccc5)c5ccccc5)nn4)C(C)CC3C)CC2C)CCC(C2(C)CCC3(CC(O)C(C)C(C(C)C(OC)C(C)C(=O)O)O3)O2)O1` (centres unmarked) [2c], the half-maximal inhibitory concentration (IC50) in assay [1] stood at 18.3 ± 0.4 µM; in assay [2] it was 10.6 ± 0.4 µM; in assay [3], 14.5 ± 2.1 µM; in assay [4], 14.9 ± 3.4 µM.

`CC[C@@]1([C@@H]2O[C@@H]([C@H]3O[C@@](O)(CO)[C@H](C)C[C@@H]3C)C[C@@H]2C)CC[C@H]([C@]2(C)CC[C@]3(C[C@H](O)[C@@H](C)[C@@H]([C@@H](C)[C@@H](OC)[C@H](C)C(=O)O)O3)O2)O1` [MON, Monensin A]: the “growth inhibition of prostate cancer cells” value in assay [5] is reported as “selectively inhibited the growth of prostate cancer cells at nanomolar concentrations”.

Regarding `CC[C@@H](C(=O)[C@@H](C)[C@@H](O)[C@H](C)[C@@H]1O[C@@H]([C@@H](CC)C(=O)O)CC[C@@H]1C)[C@H]1O[C@]2(C=C[C@H](n3cc(CNC(=O)CCC[P+](c4ccccc4)(c4ccccc4)c4ccccc4)nn3)[C@]3(CC[C@@](C)([C@H]4CC[C@](O)(CC)[C@H](C)O4)O3)O2)[C@H](C)C[C@@H]1C` [1c], the IC50 was found to be 9.8 ± 2 µM in assay [1], 14 ± 4.1 µM in assay [2], 12.9 ± 1.3 µM in assay [3] and 15.6 ± 9.1 µM in assay [4].

Consider `CC[C@@H](C(=O)[C@@H](C)[C@@H](O)[C@H](C)[C@@H]1O[C@@H]([C@@H](CC)C(=O)O)CC[C@@H]1C)[C@H]1O[C@]2(C=C[C@H](NC(=O)CCC[P+](c3ccccc3)(c3ccccc3)c3ccccc3)[C@]3(CC[C@@](C)([C@H]4CC[C@](O)(CC)[C@H](C)O4)O3)O2)[C@H](C)C[C@@H]1C` [1e], for which the IC50 was 10.4 ± 2.3 µM in assay [1], 10.9 ± 2.6 µM in assay [2], 4 ± 0.7 µM in assay [3] and 5.1 ± 0.8 µM in assay [4].

For the compound `CCCC[P+](CCCC)(CCCC)Cc1cn(CC2(O)OC(C3CC(C)C(C4(CC)CCC(C5(C)CCC6(CC(O)C(C)C(C(C)C(OC)C(C)C(=O)O)O6)O5)O4)O3)C(C)CC2C)nn1` (centres unmarked) [2d], the concentration for half-maximal inhibition (IC50) was 3.5 ± 0.1 µM in assay [1], 4.3 ± 0.01 µM in assay [2], 3.1 ± 0.6 µM in assay [3] and 1.4 ± 0.4 µM in assay [4].

Turning to `CC[C@@H](C(=O)[C@@H](C)[C@@H](O)[C@H](C)[C@@H]1O[C@@H]([C@@H](CC)C(=O)OCCCCCC[P+](c2ccccc2)(c2ccccc2)c2ccccc2)CC[C@@H]1C)[C@H]1O[C@]2(C=C[C@@H](OC(=O)CCC(=O)OCCCCCC[P+](c3ccccc3)(c3ccccc3)c3ccccc3)[C@]3(CC[C@@](C)([C@H]4CC[C@](O)(CC)[C@H](C)O4)O3)O2)[C@H](C)C[C@@H]1C` [1f], in assay [6], the “ionic current through artificial membrane” value is recorded as −10 pA. In assay [7], the “cells positive for MTGreen fluorescence” value was 61.6%.

Consider `CCC1(C2OC(C3OC(O)(Cn4cc(C[P+](c5ccccc5)(c5ccccc5)c5ccccc5)nn4)C(C)CC3C)CC2C)CCC(C2(C)CCC3(CC(O)C(C)C(C(C)C(OC)C(C)C(=O)O)O3)O2)O1` (centres unmarked) [2a], for which the concentration for half-maximal inhibition (IC50) in assay [1] worked out at 0.5 ± 0.1 µM; in assay [2] it was 0.7 ± 0.2 µM; in assay [3] it was 0.4 ± 0.1 µM; in assay [4], 0.3 ± 0.02 µM.

Turning to `CCC1(C2OC(C3OC(O)(Cn4cc(COC(=O)CCC[P+](c5ccccc5)(c5ccccc5)c5ccccc5)nn4)C(C)CC3C)CC2C)CCC(C2(C)CCC3(CC(O)C(C)C(C(C)C(OC)C(C)C(=O)O)O3)O2)O1` (centres unmarked) [2b], the IC50 in assay [1] turned out to be 0.8 ± 0.04 µM; in assay [2], 1.5 ± 0.2 µM; in assay [3], 0.7 ± 0.3 µM; in assay [4], 3.4 ± 1.1 µM.

As for `CCCC[P+](CCCC)(CCCC)Cc1cn([C@H]2C=C[C@]3(O[C@H]([C@@H](CC)C(=O)[C@@H](C)[C@@H](O)[C@H](C)[C@@H]4O[C@@H]([C@@H](CC)C(=O)O)CC[C@@H]4C)[C@@H](C)C[C@H]3C)O[C@@]23CC[C@@](C)([C@H]2CC[C@](O)(CC)[C@H](C)O2)O3)nn1` [1d], the concentration for half-maximal inhibition (IC50) in assay [1] came out at 2.5 ± 0.6 µM; in assay [2] it was 1.8 ± 0.2 µM; in assay [3], 3.6 ± 1.6 µM; in assay [4], 3.6 ± 0.5 µM. Moreover, the “ionic current through artificial membrane” value in assay [6] is recorded as −10 pA.

In the case of `CCC1(C2OC(C3OC(O)(COC(=O)CCC(=O)OCCC[P+](c4ccccc4)(c4ccccc4)c4ccccc4)C(C)CC3C)CC2C)CCC(C2(C)CCC3(CC(O)C(C)C(C(C)C(OC)C(C)C(=O)OCCC[P+](c4ccccc4)(c4ccccc4)c4ccccc4)O3)O2)O1` (centres unmarked) [2f], the IC50 in assay [1] stood at 1.7 ± 0.3 µM; in assay [2] it was 2.3 ± 0.4 µM; in assay [3], 1.4 ± 0.1 µM; in assay [4], 1.3 ± 0.2 µM. The “MTRed CMXRos positive stained cells” value in assay [8] worked out at 22.5%.

On to `CCC1(C2OC(C3OC(O)(CNC(=O)CCC[P+](c4ccccc4)(c4ccccc4)c4ccccc4)C(C)CC3C)CC2C)CCC(C2(C)CCC3(CC(O)C(C)C(C(C)C(OC)C(C)C(=O)O)O3)O2)O1` (centres unmarked) [2e], for which the IC50 in assay [1] was 46.7 ± 3.1 µM; in assay [2] it was 28.1 ± 2.1 µM; in assay [3], above 100 µM; in assay [4], above 100 µM.
